Experimental data reported in ChEMBL document CHEMBL5724914, “Linking interpersonal differences in gut microbiota composition and drug biotransformation activity” (2024).

Experiments:
[1] = The drug is tested on Z-025 corresponding to rabbit gut metagenome with ENA study accession number: PRJEB37062 and ENA sample accession number: ERS12561824 for biotransformation under anaerobic condition. The drug concentrations were measured over 9 timepoints collected between 0 and 24 hours of incubation by liquid-chromatography-coupled mass spectrometry (LC–MS); conditions: 2 µM
[2] = human gut metagenome, 24 h, 2 µM
[3] = The drug is tested on Z-013 corresponding to rabbit gut metagenome with ENA study accession number: PRJEB37062 and ENA sample accession number: ERS12561813 for biotransformation under anaerobic condition. The drug concentrations were measured over 9 timepoints collected between 0 and 24 hours of incubation by liquid-chromatography-coupled mass spectrometry (LC–MS); conditions: 2 µM
[4] = human gut metagenome, 24 h, 2 µM; remark: listed apart in the source
[5] = The drug is tested on Z-024 corresponding to pig gut metagenome with ENA study accession number: PRJEB37062 and ENA sample accession number: ERS12561823 for biotransformation under anaerobic condition. The drug concentrations were measured over 9 timepoints collected between 0 and 24 hours of incubation by liquid-chromatography-coupled mass spectrometry (LC–MS); conditions: 2 µM
[6] = The drug is tested on Z-011 corresponding to mouse gut metagenome with ENA study accession number: PRJEB37062 and ENA sample accession number: ERS12561811 for biotransformation under anaerobic condition. The drug concentrations were measured over 9 timepoints collected between 0 and 24 hours of incubation by liquid-chromatography-coupled mass spectrometry (LC–MS); conditions: 2 µM
[7] = The drug is tested on Z-004 corresponding to metagenome with ENA study accession number: PRJEB37062 and ENA sample accession number: ERS12561804 for biotransformation under anaerobic condition. The drug concentrations were measured over 9 timepoints collected between 0 and 24 hours of incubation by liquid-chromatography-coupled mass spectrometry (LC–MS); conditions: 2 µM
[8] = The drug is tested on WLS-052 corresponding to human gut metagenome with ENA study accession number: PRJEB37062 and ENA sample accession number: ERS12561747 for biotransformation under anaerobic condition. The drug concentrations were measured over 9 timepoints collected between 0 and 24 hours of incubation by liquid-chromatography-coupled mass spectrometry (LC–MS); conditions: 2 µM
[9] = human gut metagenome, 24 h, 2 µM; remark: listed apart in the source
Also: call rule not given here.

SMILES	Bacterial Biotransformation [1]	Bacterial Biotransformation [2]	Bacterial Biotransformation [3]	Bacterial Biotransformation [4]	Bacterial Biotransformation [5]	Bacterial Biotransformation [6]	Bacterial Biotransformation [7]	Bacterial Biotransformation [8]	Bacterial Biotransformation [9]
CS(=O)(=O)O.OC(CCN1CCCCC1)(c1ccccc1)c1ccccc1 [PRIDINOL METHANESULFONATE]	Compound NOT metabolized	Compound metabolized	Compound NOT metabolized	Compound NOT metabolized	Compound NOT metabolized	Compound NOT metabolized	Compound NOT metabolized	Compound NOT metabolized	Compound NOT metabolized
CC(CN1c2ccccc2Sc2ccccc21)N(C)C (stereo not drawn) [PROMETHAZINE]	Compound metabolized	Compound NOT metabolized	Compound NOT metabolized	Compound NOT metabolized	Compound metabolized	Compound NOT metabolized	Compound NOT metabolized	Compound NOT metabolized	Compound NOT metabolized
OCCOCCN1CCN(C2=Nc3ccccc3Sc3ccccc32)CC1 [QUETIAPINE]	Compound metabolized	Compound metabolized	Compound NOT metabolized	Compound NOT metabolized	Compound metabolized	Compound NOT metabolized	Compound metabolized	Compound NOT metabolized	Compound metabolized
CCC(=O)NCC[C@@H]1CCc2ccc3c(c21)CCO3 [RAMELTEON]	Compound NOT metabolized	Compound NOT metabolized	Compound metabolized	Compound metabolized	Compound metabolized	Compound NOT metabolized	Compound metabolized	Compound metabolized	Compound metabolized
CNC(=C[N+](=O)[O-])NCCSCc1ccc(CN(C)C)o1 [RANITIDINE]	Compound NOT metabolized	Compound NOT metabolized	Compound NOT metabolized	Compound metabolized	Compound NOT metabolized	Compound metabolized	Compound metabolized	Compound NOT metabolized	Compound NOT metabolized
COC(=O)[C@H]1[C@H]2C[C@@H]3c4[nH]c5cc(OC)ccc5c4CCN3C[C@H]2C[C@@H](OC(=O)c2cc(OC)c(OC)c(OC)c2)[C@@H]1OC [RESERPINE]	Compound NOT metabolized	Compound NOT metabolized	Compound NOT metabolized	Compound metabolized	Compound NOT metabolized	Compound NOT metabolized	Compound NOT metabolized	Compound NOT metabolized	Compound metabolized
Nc1nc2ccc(OC(F)(F)F)cc2s1 [RILUZOLE]	Compound NOT metabolized	Compound metabolized	Compound NOT metabolized	Compound metabolized	Compound metabolized	Compound metabolized	Compound metabolized	Compound metabolized	Compound NOT metabolized
CC(C)c1nc(CN(C)C(=O)N[C@H](C(=O)N[C@@H](Cc2ccccc2)C[C@H](O)[C@H](Cc2ccccc2)NC(=O)OCc2cncs2)C(C)C)cs1 [RITONAVIR]	Compound metabolized	Compound metabolized	Compound metabolized	Compound metabolized	Compound NOT metabolized	Compound metabolized	Compound NOT metabolized	Compound metabolized	Compound NOT metabolized
CC(C)NCC(O)c1ccc(NS(C)(=O)=O)cc1 (stereo not drawn) [SOTALOL]	Compound NOT metabolized	Compound NOT metabolized	Compound NOT metabolized	Compound NOT metabolized	Compound NOT metabolized	Compound NOT metabolized	Compound NOT metabolized	Compound NOT metabolized	Compound NOT metabolized
CCN1CCCC1CNC(=O)c1cc(S(N)(=O)=O)ccc1OC (stereo not drawn) [SULPIRIDE]	Compound NOT metabolized	Compound NOT metabolized	Compound NOT metabolized	Compound metabolized	Compound NOT metabolized	Compound metabolized	Compound metabolized	Compound NOT metabolized	Compound NOT metabolized
CNS(=O)(=O)Cc1ccc2[nH]cc(CCN(C)C)c2c1.O=C(O)CCC(=O)O [SUMATRIPTAN SUCCINATE]	Compound NOT metabolized	Compound NOT metabolized	Compound NOT metabolized	Compound NOT metabolized	Compound NOT metabolized	Compound NOT metabolized	Compound NOT metabolized	Compound NOT metabolized	Compound NOT metabolized
Nc1c2c(nc3ccccc13)CCCC2 [TACRINE]	Compound NOT metabolized	Compound metabolized	Compound NOT metabolized	Compound NOT metabolized	Compound NOT metabolized	Compound NOT metabolized	Compound NOT metabolized	Compound NOT metabolized	Compound NOT metabolized
